Where two headings read alike, the source gives them in different places.
Assay: Extended single-dose toxicity study including safety pharmacology endpoints, i.v. bolus (GLP)
Assay type: in vivo, beagle dogs
Conditions: for tlast: median; for half-life / clearance / AUC(0-t) / level at 5 min / Vd: beagle, plasma; for half-life: harmonic mean; for level at 5 min: read-out: C5 min; for Vd: read-out: Vss
Description: The following parameters and endpoints were evaluated: mortality, clinical observations, body weights, food consumption, body temperature, local reactions, ophthalmology, clinical pathology parameters (hematology, coagulation, clinical chemistry, and urinalysis), cardiovascular and respiratory safety pharmacology endpoints along with FOB evaluation, organ weights, and macroscopic and microscopic examinations, and TK parameters. The animals from subset A (3 males and 3 females per group) were sampled for toxicokinetics (TK) at: pre-dose, 5 min, 15 min, 30 min, 1 h, 2 h, 3 h and 6 h. Blood samples were collected in K2EDTA tubes. Plasma was prepared by centrifugation (2500 g for 10 minutes, +4° C.) within 1 hour after collection, and then frozen within 1 hour after centrifugation and stored at −80° C. […] Chromatographic separation was achieved using a Waters Acquity UPLC system with a Waters Acquity HSS T3 C18 2.1×50 mm, 1.8 μm column. Chromatography was conducted at 50° C. at a flow rate of 0.7 mL/min using a mobile phase consisting of A: 1% formic acid in acetonitrile, and B: 1% formic acid in water, according to the following linear gradient: 0 to 0.1 min: 90% B; 0.1 to 4.1 min: from 90% B to 74% B; 4.1 to 4.2 min: from 74% B to 5% B; 4.2 to 4.6 min: 5% B; 4.6 to 4.7 min: from 5% B to 90% B; 4.7-5.1 min; 90% B. Detection was performed using a Sciex API6600 TOF mass spectrometer. Toxicokinetic parameters were estimated from concentration-time data using Phoenix pharmacokinetic software (version 6.4, Certara L. P.). A non-compartmental approach consistent with the bolus intravenous injection was used for parameter estimation.
The test item treatment led to unaffected body weights, weight gains, and food intake. Likewise, no treatment-related abnormalities were reported during ophthalmic examinations, urinalysis, blood biochemistry, coagulation, and hematology investigations. There were no related organ weight changes and macroscopic and microscopic observations at early and late necropsies. Jacketed external telemetry was used to evaluate the potential cardiovascular and respiratory effects in the Subset B. Cardiorespiratory telemetry recordings were performed during the pre-test, Day 1 and 14. The electrocardiogram (ECG) parameters (heart rate, PQ interval duration, QRS complex duration, and QT interval duration) were collected continuously after dosing over 10-minute periods up to 6 h and over 15-minute periods up to 24 h. Miyazaki's QT correction method (Miyazaki, H. & Tagawa, M. Japanese Association for Laboratory Animal Science 2002, 51, 465-75) was used to correct the influence of heart rate. […] Arterial blood pressure parameters (systolic and diastolic blood pressure and mean arterial pressure) were measured continuously during consecutive 30-minute periods at pre-dose and for up to 6 h after dosing and over consecutive 60-minute periods up to 24 h after dosing. The respiratory rate was monitored on the pre-test, Day 1 and Day 14 at 0.5, 1, 2, 3, 4, 6, 8, 12, 16, 20, and 24 h. […] The potential effects on central nervous system parameters were evaluated under restrained and non-restrained conditions using a FOB in Subset A. Neurologic, autonomic, and behavioral investigations were performed in the pre-test, pre-dose, and 1 hour after dosing on Day 1.

[1] = dog, iv, 16 ug/kg, Female, 16 μg/kg single i.v. bolus, mean n = 3
[2] = dog, iv, 16 ug/kg, Male, 16 μg/kg single i.v. bolus, mean n = 3
[3] = dog, iv, 80 ug/kg, Female, 80 μg/kg single i.v. bolus, mean n = 3
[4] = dog, iv, 80 ug/kg, Male, 80 μg/kg single i.v. bolus, mean n = 3
[5] = dog, iv, 400 ug/kg, Female, 400 μg/kg single i.v. bolus, mean n = 3
[6] = dog, iv, 400 ug/kg, Male, 400 μg/kg single i.v. bolus, mean n = 3

CC(C)C[C@@H]1NC(=O)[C@H](Cc2cccc(NC(=O)CCCS(N)(=O)=O)c2)NC(=O)[C@H](CC(=O)O)NC(=O)[C@H]2CCCN2C(=O)[C@H](CCC(=O)O)NC(=O)[C@@H](NC(=O)[C@H](CCC(N)=O)NC(=O)CN2CCN(C(=O)CN3CCN(CC(=O)O)CCN(CC(=O)O)CCN(CC(=O)O)CC3)CC2)CSCc2cccc(c2)CSC[C@@H](C(N)=O)NC(=O)[C@H](CO)NC(=O)[C@H](Cc2c[nH]c3ccccc23)NC(=O)[C@H]([C@@H](C)O)NC1=O [DPI-4452, DOTA-PPAc-Gln-[Cys(3MeBn)-Glu-pro-Asp-Af3(Cpsu)-Leu-Thr-Trp-Ser-Cys]-NH2]
human equivalent dose of the NOAEL (60 kg human): 13.3 mg | central nervous system effects (FOB) (1 hour after dosing, 16, 80, 400 μg/kg): No effects were observed on the central nervous system | tlast (Female, 16 μg/kg single i.v. bolus): 1 h | tlast (Female, 80 μg/kg single i.v. bolus): 3 h | AUClast (Female, 400 μg/kg single i.v. bolus, mean n = 3): 771 ng·h/mL | tlast (Female, 400 μg/kg single i.v. bolus): 3 h | tlast (Male, 16 μg/kg single i.v. bolus): 1 h | tlast (Male, 80 μg/kg single i.v. bolus): 2 h | AUClast (Male, 400 μg/kg single i.v. bolus, mean n = 3): 854 ng·h/mL | tlast (Male, 400 μg/kg single i.v. bolus): 3 h | tolerability (beagle dogs, single i.v. bolus up to 400 μg/kg): well tolerated | half-life (dog, iv, 16 ug/kg, Female, 16 μg/kg single i.v. bolus): 14.3 min | clearance [1]: 21.2 mL/min/kg | AUC(0-t) (dog, iv, 16 ug/kg, Female, 16 μg/kg single i.v. bolus, mean n = 3, read-out: AUClast): 12.4 ng·h/mL | level at 5 min [1]: 37.7 ng/mL | Vd [1]: 0.3 L/kg | half-life (dog, iv, 16 ug/kg, Male, 16 μg/kg single i.v. bolus): 15.5 min | clearance [2]: 18.3 mL/min/kg | AUC(0-t) (dog, iv, 16 ug/kg, Male, 16 μg/kg single i.v. bolus, mean n = 3, read-out: AUClast): 14 ng·h/mL | level at 5 min [2]: 43.5 ng/mL | Vd [2]: 0.26 L/kg | half-life (dog, iv, 80 ug/kg, Female, 80 μg/kg single i.v. bolus): 23.2 min | clearance [3]: 9.27 mL/min/kg | AUC(0-t) (dog, iv, 80 ug/kg, Female, 80 μg/kg single i.v. bolus, mean n = 3, read-out: AUClast): 144 ng·h/mL | level at 5 min [3]: 346 ng/mL | Vd [3]: 0.21 L/kg | half-life (dog, iv, 80 ug/kg, Male, 80 μg/kg single i.v. bolus): 21.7 min | clearance [4]: 10.1 mL/min/kg | AUC(0-t) (dog, iv, 80 ug/kg, Male, 80 μg/kg single i.v. bolus, mean n = 3, read-out: AUClast): 132 ng·h/mL | level at 5 min [4]: 332 ng/mL | Vd [4]: 0.21 L/kg | half-life (dog, iv, 400 ug/kg, Female, 400 μg/kg single i.v. bolus): 21.8 min | clearance [5]: 8.63 mL/min/kg | level at 5 min [5]: 1760 ng/mL | Vd [5]: 0.19 L/kg | half-life (dog, iv, 400 ug/kg, Male, 400 μg/kg single i.v. bolus): 23.7 min | clearance [6]: 7.88 mL/min/kg | level at 5 min [6]: 1840 ng/mL | Vd [6]: 0.19 L/kg | NOAEL at 14 days (both sexes, dog, in vivo, iv, beagle dogs, single i.v. bolus): 0.4 mg/kg | AUC(0-t) (female, dog, iv, 400 ug/kg, females, 400 μg/kg i.v., read-out: mean AUCtlast at the NOAEL): 771 ng·h/mL | cardiovascular and respiratory safety pharmacology (jacketed external telemetry, 16, 80, 400 μg/kg): no related effect on cardiovascular or respiratory parameters | AUC(0-t) (male, dog, iv, 400 ug/kg, males, 400 μg/kg i.v., read-out: mean AUCtlast at the NOAEL): 854 ng·h/mL | NOAEL cover of the predicted human dose (total ligand mass dose 500 μg/patient): more than 25 times
